# Data as given in ChEMBL document CHEMBL5108019, “Discovery of a novel Pleuromutilin derivative as anti-IPF lead compound via high-throughput assay” (Eur J Med Chem, 2022).
# Activity calls are given as the source filed them. The calls are words filed in the database; no cut-off is given here.
# How the values were obtained:
# [1] = molecular target: Transforming growth factor beta-1 proprotein/Mothers against decapentaplegic homolog 3 (Mus musculus) (UniProt P04202+Q8BUN5); assay: Inhibition of TGF-beta1/Smad3 signalling in TGF-beta1 treated mouse NIH3T3 cells transfected with (CAGA)12-Lux reporter gene assessed as suppressive ratio at 10 uM incubated for 18 hrs by luciferase based analysis relative to control; assay type: cell-based; parameters: scale not given: the % may be the effect or the level left
# Chain of Transforming growth factor beta-1 proprotein/Mothers against decapentaplegic homolog 3 (Mus musculus) (P04202 279-390 limits assumed): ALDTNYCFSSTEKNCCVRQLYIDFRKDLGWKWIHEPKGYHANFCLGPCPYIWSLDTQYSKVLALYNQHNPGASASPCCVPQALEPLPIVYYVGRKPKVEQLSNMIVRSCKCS
# Chain of Transforming growth factor beta-1 proprotein/Mothers against decapentaplegic homolog 3 (Mus musculus) (Q8BUN5 2-425 partner limits assumed): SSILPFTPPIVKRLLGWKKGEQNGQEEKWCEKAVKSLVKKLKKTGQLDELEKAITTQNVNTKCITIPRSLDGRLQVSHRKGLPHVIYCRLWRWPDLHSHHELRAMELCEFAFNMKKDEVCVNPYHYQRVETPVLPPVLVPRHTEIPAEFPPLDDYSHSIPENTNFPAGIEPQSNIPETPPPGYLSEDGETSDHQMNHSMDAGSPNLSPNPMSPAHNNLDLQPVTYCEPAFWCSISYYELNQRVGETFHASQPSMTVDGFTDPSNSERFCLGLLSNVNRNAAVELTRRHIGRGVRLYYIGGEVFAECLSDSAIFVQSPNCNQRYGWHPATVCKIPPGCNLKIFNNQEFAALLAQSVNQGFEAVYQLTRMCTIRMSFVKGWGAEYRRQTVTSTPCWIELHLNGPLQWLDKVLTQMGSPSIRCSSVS
# Staphylococcus aureus = assay: Antibacterial activity against Staphylococcus aureus assessed as bacterial growth inhibition incubated for 24 hrs; assay type: functional
# Escherichia coli = assay: Antibacterial activity against Escherichia coli assessed as bacterial growth inhibition incubated for 24 hrs; assay type: functional
# Bacillus subtilis = assay: Antibacterial activity against Bacillus subtilis assessed as bacterial growth inhibition incubated for 24 hrs; assay type: functional
# Mus musculus [2] = assay: Antifibrotic activity against BLM-induced pulmonary fibrosis in C57BL/6 mouse model assessed as improvement in pulmonary alveolar structure damage at 100 mg/kg, po administered once daily starting from day 7 post BLM treatment and measured on day 14 by H and E staining based analysis; assay type: functional, organism-based; conditions: time 14.0 day
# Mus musculus [3] = assay: (§1) Antifibrotic activity against BLM-induced pulmonary fibrosis in C57BL/6 mouse model assessed as reduction in fibrosis region at 100 mg/kg, po administered once daily starting from day 7 post BLM treatment and measured on day 14 by hematoxylin-eosin and Masson trichrome staining based analysis relative to control; assay type: functional, organism-based; conditions: time 14.0 day
# [4] = Inhibition of TGF-beta1 induced cell proliferation in mouse MLg cells measured after 24 hrs by MTT assay; assay type: functional, cell-based
# [5] = molecular target: Transforming growth factor beta-1 proprotein/Mothers against decapentaplegic homolog 3 (Mus musculus, UniProt P04202+Q8BUN5); assay: Inhibition of TGF-beta1/Smad3 signalling in TGF-beta1 treated mouse NIH3T3 cells transfected with (CAGA)12-Lux reporter gene incubated for 18 hrs by luciferase based analysis; assay type: cell-based
# Chain of Transforming growth factor beta-1 proprotein/Mothers against decapentaplegic homolog 3 (P04202 279-390 limits assumed): as the sequence (P04202 279-390 limits assumed) above
# Chain of Transforming growth factor beta-1 proprotein/Mothers against decapentaplegic homolog 3 (Q8BUN5 2-425 limits assumed): as the sequence (Q8BUN5 2-425 partner limits assumed) above
# [6] = Cmax in Sprague-Dawley rat at 10 mg/kg, iv measured for 12 hrs by LC-MS/MS analysis; assay type: ADME, organism-based; parameters: dose 10 mg/kg, time 12 hrs, route iv; conditions: in vivo
# [7] = AUC (0 to t) in Sprague-Dawley rat at 10 mg/kg, iv measured for 12 hrs by LC-MS/MS analysis; assay type: ADME, organism-based; parameters: dose 10 mg/kg, time 12 hrs, route iv; conditions: in vivo
# [8] = Tmax in Sprague-Dawley rat at 10 mg/kg, iv measured for 12 hrs by LC-MS/MS analysis; assay type: ADME, organism-based; conditions: in vivo
# [9] = Half life in Sprague-Dawley rat at 10 mg/kg, iv measured for 12 hrs by LC-MS/MS analysis; assay type: ADME, organism-based; conditions: in vivo
# [10] = Clearance in Sprague-Dawley rat at 10 mg/kg, iv measured for 12 hrs by LC-MS/MS analysis; assay type: ADME, organism-based; conditions: in vivo
# [11] = Cmax in Sprague-Dawley rat at 100 mg/kg, po measured for 18 hrs by LC-MS/MS analysis; assay type: ADME, organism-based; parameters: dose 100 mg/kg, time 18 hrs, route po; conditions: in vivo
# [12] = AUC (0 to t) in Sprague-Dawley rat at 100 mg/kg, po measured for 18 hrs by LC-MS/MS analysis; assay type: ADME, organism-based; parameters: dose 100 mg/kg, time 18 hrs, route po; conditions: in vivo
# [13] = Tmax in Sprague-Dawley rat at 100 mg/kg, po measured for 18 hrs by LC-MS/MS analysis; assay type: ADME, organism-based; conditions: in vivo
# [14] = Half life in Sprague-Dawley rat at 100 mg/kg, po measured for 18 hrs by LC-MS/MS analysis; assay type: ADME, organism-based; conditions: in vivo
# [15] = Clearance in Sprague-Dawley rat at 100 mg/kg, po measured for 18 hrs by LC-MS/MS analysis; assay type: ADME, organism-based; conditions: in vivo
# [16] = Oral bioavailability in Sprague-Dawley rat at 100 mg/kg measured for 18 hrs by LC-MS/MS analysis; assay type: ADME, organism-based; conditions: in vivo
# [17] = Toxicity in C57BL/6 mouse assessed as animal survival at 1000 mg/kg, IG administered as single dose; assay type: organism-based; conditions: in vivo, po
# [18] = Toxicity in C57BL/6 mouse assessed as animal survival at 500 mg/kg, IG administered once every day for 7 days; assay type: organism-based; conditions: in vivo, po, 168 h, time 7 day
# [19] = Toxicity in C57BL/6 mouse assessed as animal survival at 500 mg/kg, po administered once every day for 30 days; assay type: organism-based; conditions: in vivo, 720 h, time 30 day
# [20] = Toxicity in C57BL/6 mouse assessed as toxic symptoms at 500 mg/kg, po administered once every day for 30 days; assay type: organism-based; conditions: in vivo, 720 h, time 30 day
# Mus musculus [21] = assay: Antifibrotic activity against BLM-induced pulmonary fibrosis in C57BL/6 mouse model assessed as improvement in pulmonary alveolar structure damage at 100 to 200 mg/kg, po administered once daily starting from day 7 post BLM treatment and measured on day 14 by H and E staining based analysis; assay type: functional, organism-based; conditions: dose 100-200 mg/kg, time 14.0 day
# Mus musculus [22] = assay: Antifibrotic activity against BLM-induced pulmonary fibrosis in C57BL/6 mouse model assessed as improvement in forced vital capacity at 200 mg/kg, po administered once daily starting from day 7 post BLM treatment and measured on day 14 by plethysmography chamber based pulmonary function analysis; assay type: functional; conditions: time 14 day
# Mus musculus [23] = assay: Antifibrotic activity against BLM-induced pulmonary fibrosis in C57BL/6 mouse model assessed as improvement in dynamic compliance at 200 mg/kg, po administered once daily starting from day 7 post BLM treatment and measured on day 14 by plethysmography chamber based pulmonary function analysis; assay type: functional; conditions: time 14 day
# Mus musculus [24] = assay: Antifibrotic activity against BLM-induced pulmonary fibrosis in C57BL/6 mouse model assessed as improvement in inspiratory resistance at 200 mg/kg, po administered once daily starting from day 7 post BLM treatment and measured on day 14 by plethysmography chamber based pulmonary function analysis; assay type: functional; conditions: time 14 day
# Mus musculus [25] = assay: Antifibrotic activity against BLM-induced pulmonary fibrosis in C57BL/6 mouse model assessed as improvement in expiratory resistance at 200 mg/kg, po administered once daily starting from day 7 post BLM treatment and measured on day 14 by plethysmography chamber based pulmonary function analysis; assay type: functional, organism-based; conditions: time 14.0 day
# Mus musculus [26] = assay: as §1, with “200” for “100”; assay type: functional, organism-based; conditions: time 14.0 day
# Mus musculus [27] = assay: Antifibrotic activity against BLM-induced pulmonary fibrosis in C57BL/6 mouse model assessed as reduction in collagen content in lungs at 100 to 200 mg/kg, po administered once daily starting from day 7 post BLM treatment and measured on day 14 by hydroxyproline method; assay type: functional, organism-based; conditions: dose 100-200 mg/kg, time 14.0 day
# Mus musculus [28] = assay: Antifibrotic activity against BLM-induced pulmonary fibrosis in C57BL/6 mouse model assessed as reduction in extracellular matrix generation at 200 mg/kg, po administered once daily starting from day 7 post BLM treatment and measured on day 14 by hydroxyproline method; assay type: functional, organism-based; conditions: time 14.0 day
# Pulmonary fibroblast [29] = assay: Inhibition of TGF-beta1 induced cell stimulation in mouse pulmonary fibroblast cells assessed as reduction in alpha-SMA protein expression at 10 to 40 uM incubated for 24 hrs by Western blot analysis; assay type: functional, cell-based; conditions: dose 10-40 µM
# Pulmonary fibroblast [30] = assay: Inhibition of TGF-beta1 induced extracellular matrix development in mouse pulmonary fibroblast cells assessed as reduction in alpha-SMA mRNA expression at 10 to 40 uM incubated for 24 hrs by RT-PCR analysis; assay type: functional, cell-based; conditions: dose 10-40 µM
# [31] = molecular target: Mothers against decapentaplegic homolog 3 (Mus musculus) (UniProt Q8BUN5); assay: Inhibition of TGF-beta1 induced Smad3 phosphorylation in mouse pulmonary fibroblast cells at 10 to 40 uM incubated for 0.5 hrs by Western blot analysis; assay type: cell-based; conditions: dose 10-40 µM
# Chain of Mothers against decapentaplegic homolog 3 (Mus musculus) (Q8BUN5 whole entry, looked up): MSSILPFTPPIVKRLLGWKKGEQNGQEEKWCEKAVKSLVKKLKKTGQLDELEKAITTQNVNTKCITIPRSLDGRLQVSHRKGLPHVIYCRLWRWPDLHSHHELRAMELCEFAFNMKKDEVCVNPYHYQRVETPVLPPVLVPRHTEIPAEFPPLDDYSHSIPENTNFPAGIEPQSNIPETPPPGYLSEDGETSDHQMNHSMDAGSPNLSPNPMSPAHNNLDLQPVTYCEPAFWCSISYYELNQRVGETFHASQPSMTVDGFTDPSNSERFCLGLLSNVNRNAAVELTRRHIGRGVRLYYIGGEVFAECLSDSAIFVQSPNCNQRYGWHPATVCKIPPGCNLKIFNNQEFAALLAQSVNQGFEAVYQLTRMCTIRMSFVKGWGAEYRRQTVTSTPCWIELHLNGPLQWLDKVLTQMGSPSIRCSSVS
smiles,measurement,setting,value
C=C[C@]1(C)C[C@@H](O)[C@]2(C)[C@H](C)CC[C@]3(C/C(=C\c4ccc(C(=O)O)cc4)C(=O)[C@H]32)[C@@H](C)[C@@H]1O,Activity,[1],41.4%
same,MIC,Staphylococcus aureus,> 1000 µg/mL
same,MIC,Escherichia coli,> 1000 µg/mL
same,MIC,Bacillus subtilis,> 1000 µg/mL
C=C[C@]1(C)C[C@@H](OC(=O)CO)[C@]2(C)[C@H](C)CC[C@]3(CCC(=O)[C@H]32)[C@@H](C)[C@@H]1O [PLEUROMULIN],MIC,Staphylococcus aureus,5 µg/mL
same,MIC,Escherichia coli,10 µg/mL
same,MIC,Bacillus subtilis,100 µg/mL
Cc1ccc(=O)n(-c2ccccc2)c1,Activity,Mus musculus [2],Active
same,Activity,Mus musculus [3],Active
C=C[C@]1(C)C[C@@H](O)[C@]2(C)[C@H](C)CC[C@]3(C/C(=C\c4ccc(C(=O)N5CCN(C)CC5)cc4)C(=O)[C@H]32)[C@@H](C)[C@@H]1O,Activity,[1],40.3%
same,MIC,Staphylococcus aureus,> 1000 µg/mL
same,MIC,Escherichia coli,> 1000 µg/mL
same,MIC,Bacillus subtilis,> 1000 µg/mL
C=C[C@]1(C)C[C@@H](O)[C@]2(C)[C@H](C)CC[C@]3(C/C(=C\c4ccc(C(=O)NC5CCCCC5)cc4)C(=O)[C@H]32)[C@@H](C)[C@@H]1O,Activity,[1],58.4%
same,MIC,Staphylococcus aureus,> 1000 µg/mL
same,MIC,Escherichia coli,> 1000 µg/mL
same,MIC,Bacillus subtilis,> 1000 µg/mL
same,IC50,[4],160 µM
same,IC50,[5],60.3 µM
same,Cmax,[6],2270 ng/mL
same,AUC(0-t) at 12 h,[7],2900 ng·h/mL
same,Tmax,[8],39.6 s
same,half-life,[9],0.488 h
same,clearance,[10],27.1 mL/min
same,Cmax,[11],2160 ng/mL
same,AUC(0-t) at 18 h,[12],17800 ng·h/mL
same,Tmax,[13],3.33 h
same,half-life,[14],9.21 h
same,CL/F,[15],7.62 mL/min
same,bioavailability,[16],61.2%
same,Activity,[17],Non-Toxic
same,Activity,[18],Non-Toxic
same,Activity,[19],Non-Toxic
same,Activity,[20],Non-Toxic
same,Activity,Mus musculus [21],Active
same,Activity,Mus musculus [22],76.47%
same,Activity,Mus musculus [23],38.85%
same,Activity,Mus musculus [24],51.03%
same,Activity,Mus musculus [25],Active
same,Activity,Mus musculus [26],Active
same,Activity,Mus musculus [3],Active
same,Activity,Mus musculus [27],Active
same,Activity,Mus musculus [28],Active
same,inhibition,Pulmonary fibroblast [29],Active
same,inhibition,Pulmonary fibroblast [30],Active
same,inhibition,[31],Active
C=C[C@]1(C)C[C@@H](O)[C@]2(C)[C@H](C)CC[C@]3(C/C(=C\c4ccc(OC)cc4)C(=O)[C@H]32)[C@@H](C)[C@@H]1O,Activity,[1],21%
C=C[C@]1(C)C[C@@H](O)[C@]2(C)[C@H](C)CC[C@]3(C/C(=C\c4ccc(Cl)cc4)C(=O)[C@H]32)[C@@H](C)[C@@H]1O,Activity,[1],48.9%
C=C[C@]1(C)C[C@@H](O)[C@]2(C)[C@H](C)CC[C@]3(C/C(=C\c4ccccc4C)C(=O)[C@H]32)[C@@H](C)[C@@H]1O,Activity,[1],38.8%
C=C[C@]1(C)C[C@@H](O)[C@]2(C)[C@H](C)CC[C@]3(C/C(=C\c4cccc(C)c4)C(=O)[C@H]32)[C@@H](C)[C@@H]1O,Activity,[1],0.99%
C=C[C@]1(C)C[C@@H](O)[C@]2(C)[C@H](C)CC[C@]3(C/C(=C\c4cccc(C(=O)NC5CCCCC5)c4)C(=O)[C@H]32)[C@@H](C)[C@@H]1O,Activity,[1],-3.36%
C=C[C@]1(C)C[C@@H](O)[C@]2(C)[C@H](C)CC[C@]3(C/C(=C\c4ccc(SC)cc4)C(=O)[C@H]32)[C@@H](C)[C@@H]1O,Activity,[1],46%
C=C[C@]1(C)C[C@@H](O)[C@]2(C)[C@H](C)CC[C@]3(C/C(=C\C4CC4)C(=O)[C@H]32)[C@@H](C)[C@@H]1O,Activity,[1],-10.8%
C=C[C@]1(C)C[C@@H](O)[C@]2(C)[C@H](C)CC[C@]3(C/C(=C\c4cccc(C(=O)O)c4)C(=O)[C@H]32)[C@@H](C)[C@@H]1O,Activity,[1],-0.41%
C=C[C@]1(C)C[C@@H](O)[C@]2(C)[C@H](C)CC[C@]3(C/C(=C\c4ccco4)C(=O)[C@H]32)[C@@H](C)[C@@H]1O,Activity,[1],31%
